One data set has as its system NAT. In words: Inhibition of NAT activity by PVK. Format: biochemical. Conditions: within 10 minutes, at less than 1 µM.
For data set [1], the target named is T1, MMNAT (Mycobacterium marinum, UniProt B2HIZ6). In words: ESI-MS analysis of covalent enzyme-inhibitor adducts. The class given is binding, M. marinum. To be noted: enzyme-to-inhibitor ratio 1∶1; for Δm of enzyme-inhibitor adduct (MMNAT): 24°C, 30–60 min; for Molar ratio (inhibitor/protein) (MMNAT): proposed number of inhibition species bound per protein molecule. On the procedure:
ESI-MS was performed as described previously. A sample of 2.5 mg/mL (80 µM) MMNAT was analyzed on a Micromass LCT mass spectrometer. The samples were pretreated with DMSO or 0.08–1.2 mM inhibitor dissolved in DMSO to a final percentage of 5% (v/v) DMSO and incubated for 30–60 min before analysis. ESI-MS analysis was performed in positive ion mode after denaturation in 50% v/v acetonitrile in water with an accuracy of ±0.1%. The sample was run over a desalting column prior to MS analysis.

For data set [2], the target named is T2, TBNAT (Mycobacterium tuberculosis, UniProt P9WJI5).
T2 construct: made in house
T2 sequence (P9WJI5 whole entry): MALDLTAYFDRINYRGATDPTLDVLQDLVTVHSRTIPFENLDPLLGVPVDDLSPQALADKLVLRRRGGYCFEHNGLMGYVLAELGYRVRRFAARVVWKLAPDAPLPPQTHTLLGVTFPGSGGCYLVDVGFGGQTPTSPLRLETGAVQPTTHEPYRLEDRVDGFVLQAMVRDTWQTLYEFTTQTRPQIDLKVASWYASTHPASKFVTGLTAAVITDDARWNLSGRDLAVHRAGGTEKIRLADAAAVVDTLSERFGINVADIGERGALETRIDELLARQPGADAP
Described as above. The class given is binding, M. tuberculosis. Conditions: ratio not stated.

Data set [3] has as its target T2, TBNAT. In words: NAT-inhibition assay (Ac-CoA hydrolysis with hydralazine, Ellman's reagent). Format: biochemical, M. tuberculosis. Conditions: for IC50: mean ± S.D.; for inhibition at 50 µM: read-out: TBNAT % Inhibition. On the procedure:
(§1) An assay for measuring the formation of CoA was used to determine the activity of the enzyme in the presence of potential inhibitors. All the tested compounds were dissolved in dimethylsulphoxide (DMSO) and all reactions were carried out in the presence of 5% (v/v) DMSO. The enzyme (100–150 ng) was mixed with the inhibitors 1–5 (5 µL at a final concentration of 0–250 µM) and incubated for 15 min at 24°C prior to starting the reaction by adding 15 µL hydralazine and 12 µL Ac-CoA at final concentrations of 150 µM and 120 µM respectively, in a final total volume of 100 µL of 20 mM Tris-HCl pH 8. The assay was performed as an end-point read out measurement by stopping the reaction after 10 min at 24°C using 25 µL Ellman's reagent (5 mM 5,5′-dithiobis-(2-nitrobenzoate) solution in 6.4 M guanidine-HCl and 100 mM Tris-HCl, pH 7.3). The absorbance was measured at a wavelength of 405 nm within 2 min (Tecan Sunrise Plate Reader). The assays were repeated using a 10-fold enzyme concentration to exclude promiscuous non-specific inhibitors. The activity of the enzyme in the presence of 5% (v/v) DMSO was measured as a control. Inhibition values were determined as the ratio of the enzyme activity (expressed as the rate of CoA formation per microgram protein (µM/min.µg)) with the requisite compound, to the activity of the control without inhibitor. IC50 values were determined from the inhibition curves which were obtained by non-linear fitting of the % inhibition and the inhibitor concentration (µM) using the Log(inhibitor) vs. response module of GraphPad Prism 5.0.
For orientation: Ellman's reagent forms a yellow product with free thiols.

Data set [4] addresses T1, MMNAT. Described as above. Format: biochemical, M. marinum. Conditions: for IC50: mean ± S.D.; for inhibition at 50 µM: read-out: MMNAT % Inhibition. On the procedure: as §1
Data set [5] deals with T1, MMNAT. In words: Time-dependent inhibition assay (Kitz and Wilson model). The class given is biochemical, M. marinum. Conditions: 24°C. On the procedure:
The time course of the inhibition of NAT by the piperidinols was evaluated according to the Kitz and Wilson model. Irreversible inhibition, progressive with time, was measured for the piperidinol inhibitors (1–5) by the protocol described in Figure S2, and the values of the apparent first order constant (kobs) were determined (Table 1). Dilution rather than dialysis was used in this protocol due to the likely loss of activity upon dialysis (Figure 3). […] Examples of the curves obtained for enzyme activity against incubation time upon inhibition of MMNAT and TBNAT by the piperidinols are shown in Figure 4.
For the determination of the time dependence of interaction between enzymes and inhibitors, the inhibitor was diluted to less than 1% concentration. Incubation mixtures (20 µL) contained 0.06 mM MMNAT or TBNAT in 20 mM Tris-HCl, pH 8 and 5% (v/v) DMSO and variable concentrations of the inhibitors (0–50 µM) were prepared using the protocol described in Figure S1. Aliquots of 1 µL were removed from the reaction mixture at different time points (incubation-time) and diluted to 100 µL using the assay buffer containing HLZ and Ac-CoA to the final concentrations of 150 µM and 120 µM, respectively. The rate of Ac-CoA hydrolysis was measured over a three-minute time period. The reaction was stopped with 25 µL Ellman's reagent in 6.4 M guanidine and the absorbance was measured at a wavelength of 405 nm. The residual activity was measured as a percentage of a control prepared as described in Figure S1 and plotted against the incubation-time. The data were fitted using the Semilog line (X is linear, Y is Log) module of GraphPad Prism 5.0. The slope of each line is equivalent to (−kobs/2.303) at each inhibitor concentration.The controls in which no enzyme was present using CoA and Ellman's reagent gave the same results whether compound 1 was present or not.

For a further data set, the system named is M. bovis BCG. Briefly: microbe, parasite or virus in culture. The class given is cell-based. Conditions: for MIC M. bovis BCG: solid 7H10-OADC medium, no growth after 2 weeks; for MIC: Mycobacterium tuberculosis variant bovis BCG, BCG, 336 h, read-out: MIC M. bovis BCG.
The next data set has as its system M. tuberculosis H37Rv. Briefly: Mycobacterial growth inhibition in vitro (spot culture on solid medium). Format: cell-based. To be noted: for MIC M. tuberculosis: H37Rv, solid 7H10-OADC medium, no growth after 2 weeks; for MIC: Mycobacterium tuberculosis, H37RV, 336 h, read-out: MIC M. tuberculosis.
On the set-up of data set [6]: method as in PMID 16032973. To be noted: cited from earlier work.
[7] abbreviates: 50 µM inhibitor, 150 µM HLZ, 120 µM Ac-CoA, 24°C, mean ± S.D. of triplicate.
The mark [8] stands for this setting: 150 µM HLZ, 120 µM Ac-CoA, 24°C.

Converted amounts (≈) assume the structure as drawn. “And” between values parts separate entries of the source, which are not always exact repeats. Equal entries are not always repeated. Where two headings read alike, the source gives them in different places.

T1 sequence (B2HIZ6 entry or part of it): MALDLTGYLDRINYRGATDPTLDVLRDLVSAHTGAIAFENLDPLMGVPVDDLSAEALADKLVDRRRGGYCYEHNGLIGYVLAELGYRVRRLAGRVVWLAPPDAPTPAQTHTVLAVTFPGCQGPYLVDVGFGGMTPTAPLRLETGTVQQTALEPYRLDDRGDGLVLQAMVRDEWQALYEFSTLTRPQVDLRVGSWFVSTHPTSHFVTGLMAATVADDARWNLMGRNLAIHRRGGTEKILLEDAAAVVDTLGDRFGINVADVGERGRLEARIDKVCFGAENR

Consider `C=CC(=O)c1ccccc1` [PVK, phenyl vinyl ketone, reference compound], for which the “inhibition of the NAT activity” value with NAT was determined as 100%. Also, on MMNAT [1], the “Δm of enzyme-inhibitor adduct (MMNAT)” value was determined as 132 Da and the “Molar ratio (inhibitor/protein) (MMNAT)” value is given as 1. In addition, the “mass difference of enzyme adduct (TBNAT)” value at TBNAT [2] amounted to 132.

On to `CN1CCC(O)(c2ccc(Cl)cc2)C(C(=O)c2ccc(Cl)cc2)C1` (stereo not shown) [compound 2], for which, on TBNAT [3] (setting [7]), the “TBNAT % Inhibition” value worked out at 98±1%. The IC50 was found to be 1.6 ± 0.1 µM against TBNAT [3] (setting [8]) and 0.16 ± 0.01 µM against MMNAT [4] (setting [8]). Moreover, the “MMNAT % Inhibition” value on MMNAT [4] (setting [7]) was found to be 103±2%. The MMNAT kobs at MMNAT [5] (inhibitor at 11.9 µM) is reported as 110±2 10^−3 min^−1. For the same compound, in the data set with M. bovis BCG, the “MIC M. bovis BCG” value was 17.3 to 34.3 µM. The “MIC M. tuberculosis” value against M. tuberculosis H37Rv lay within 2.7 to 13.7 µM. Besides, at MMNAT [1], the “Δm of enzyme-inhibitor adduct (MMNAT)” value is 164 Da and 164.3 Da. For the same compound, the “Molar ratio (inhibitor/protein) (MMNAT)” value on MMNAT [1] was determined as 1.

On TBNAT [3] (setting [8]), `O=C(c1ccccc1)C1CN(C2CCCCC2)CCC1(O)c1ccccc1` (stereo not shown) [compound 3] registered a 50% inhibitory concentration (IC50) of 4.4 ± 0.1 µM. For the same compound, the inhibition at 50 µM at TBNAT [3] worked out at 72 ± 60%; at MMNAT [4], 103 ± 1%. Further, the MMNAT kobs on MMNAT [5] (inhibitor at 5.9 µM) is on record as 573±18 10^−3 min^−1. Further, the MIC was in the range of 17.3 to 34.4 µM (≈ 6.29 to 12.5 µg/mL) with M. bovis BCG and 2.8 to 13.8 µM (≈ 1.02 to 5.02 µg/mL) with M. tuberculosis H37Rv. Besides, the “Δm of enzyme-inhibitor adduct (MMNAT)” value at MMNAT [1] is 132 Da and 131.5 Da. Further, the “Molar ratio (inhibitor/protein) (MMNAT)” value on MMNAT [1] was 1.

For the compound `CC1(C)CC(N2CCC(O)(c3ccccc3)C(C(=O)c3ccccc3)C2)CC(C)(C)N1` (stereo not shown) [compound 4], the inhibition at 50 µM at TBNAT [3] (setting [7]) turned out to be 67 ± 4%; on MMNAT [4] (setting [7]), 100 ± 2%. For the same compound, the 50% inhibitory concentration (IC50) against TBNAT [3] (setting [8]) stood at 1.1 ± 0.3 µM; against MMNAT [4] (setting [8]) it was 2.7 ± 0.4 µM. Moreover, the MMNAT kobs on MMNAT [5] (inhibitor at 11.9 µM) is 586±115 10^−3 min^−1. The MIC in the data set on M. bovis BCG is 14.8 to 29.3 µM (≈ 6.22 to 12.3 µg/mL); with M. tuberculosis H37Rv it was 2.3 to 11.7 µM (≈ 0.967 to 4.92 µg/mL). Besides, on MMNAT [1], the “Δm of enzyme-inhibitor adduct (MMNAT)” value is 132 Da and 130.5 Da. For the same compound, on MMNAT [1], the “Molar ratio (inhibitor/protein) (MMNAT)” value was determined as 1.

Regarding `CN(CCC(=O)c1ccccc1)CCC(=O)c1ccccc1` [compound 5], the “TBNAT % Inhibition” value on TBNAT [3] (setting [7]) is given as 101±2%. Moreover, the 50% inhibitory concentration (IC50) against TBNAT [3] (setting [8]) is 1.2 ± 0.1 µM. Besides, the “MMNAT % Inhibition” value on MMNAT [4] (setting [7]) worked out at 101±2%. The IC50 against MMNAT [4] (setting [8]) amounted to 0.14 ± 0.02 µM. On MMNAT [5] (inhibitor at 11.9 µM), the MMNAT kobs was 34±2 10^−3 min^−1. For the same compound, the “MIC M. bovis BCG” value with M. bovis BCG was in the range of 21.3 to 42.3 µM. In the data set with M. tuberculosis H37Rv, the “MIC M. tuberculosis” value lay within 3.4 to 16.9 µM. Further, at MMNAT [1], the “Δm of enzyme-inhibitor adduct (MMNAT)” value was 132 Da and 129.7 Da; the “Molar ratio (inhibitor/protein) (MMNAT)” value amounted to 1. Further, the “toxicity compared to the cyclic piperidinol” value in data set [6] was “greater toxicity”.

As usually defined, the IC50 is the point on the concentration scale where inhibition reaches its midpoint. High values mean weaker potency, low ones greater potency. Usually inhibition stands for the relative decrease from the control value, in per cent.

The values are drawn from paper PMC3532304, “Piperidinols That Show Anti-Tubercular Activity as Inhibitors of Arylamine N-Acetyltransferase: An Essential Enzyme for Mycobacterial Survival Inside Macrophages” (PLoS ONE, 2012).
